The results in this text go back to patent US11447497B2, “(S)-3-(2-(4-(benzyl)-3-oxopiperazin-1-yl)acetamido)-4-oxo-5-(2,3,5,6-tetrafluorophenoxy)pentanoic acid derivatives and related compounds as caspase inhibitors for treating cardiovascular diseases” (HISTOGEN, INC., priority 2018, dated 2022).

What is called IC50 is the concentration that inhibits the measured activity by half.

Assay type in all cases: biochemical
One assay has as its target Caspase-1 (Homo sapiens (Human), UniProt P29466). As to the kind of experiment: Caspase-1 assay, inhibition of caspase activity (Ac-YVAD-pNA substrate). The conditions noted are these: human caspase-1, Ac-YVAD-pNA 200 μM, read at 405 nm. As to the method: (§1) Assay for the Inhibition of Caspase Activity and Determination of IC50 Values
(§2) Human caspases were purchased from Enzo Biosciences and used according to the manufacturer's instructions. An exemplary caspase assay, for Caspase-1, is provided below:
Caspase-1 was diluted to 10 U/μl in assay buffer consisting of 50 mM HEPES, pH 7.4, 100 mM NaCl, 0.1% CHAPS, 1 mM EDTA, 10% glycerol and 10 mM DTT.
45 μl of assay buffer was added into ½ volume microtiter plate. The plate was allowed to equilibrate to assay temperature. 5 μl of Caspase-1 (10 U/μl) was added to each appropriate well. Two 2 blank wells containing just assay buffer without Caspase-1 were included on the plate.
The reaction was started by the addition of 50 μl Ac-YVAD-pNA substrate, for a final substrate concentration of 200 μM. The reaction was continuously monitored at 405 nm.
(§3) The data was graphed as OD405 nm vs time, and the slope was determined over the linear portion of the curve. The rates in OD/min were converted to substrate/min using an extinction coefficient for p-nitroaniline of 10,500 M-1 cm-1, and were adjusted for pathlength of sample. Similarly assays were conducted for Caspase-3, Caspase-8 and Caspase-9. The Table below provides a summary of the binding data for the compounds prepared according to Examples 1-4: […]

The target in a further assay is Caspase-8 (Homo sapiens (Human), UniProt Q14790). As to the kind of experiment: Caspase-8 assay, inhibition of caspase activity. The conditions noted are these: human caspase-8. As to the method: as §1, §2, §3
Another assay addresses Caspase-9 (Homo sapiens (Human), UniProt P55211). As to the kind of experiment: Caspase-9 assay, inhibition of caspase activity. The conditions noted are these: human caspase-9. The method, then: as §1, §2, §3
In the next assay the target is Caspase-3 (Homo sapiens (Human), UniProt P42574). In words: Caspase-3 assay, inhibition of caspase activity. The conditions noted are these: human caspase-3. The method, then:
as §1, §2, §3

Caspase-1, sequence (P29466 120-297): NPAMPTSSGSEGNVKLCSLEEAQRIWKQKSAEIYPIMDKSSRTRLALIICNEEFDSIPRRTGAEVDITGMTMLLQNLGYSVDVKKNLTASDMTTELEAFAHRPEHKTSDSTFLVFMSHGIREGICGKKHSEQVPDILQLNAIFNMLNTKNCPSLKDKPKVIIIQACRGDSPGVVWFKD
Caspase-1, sequence (P29466 317-404): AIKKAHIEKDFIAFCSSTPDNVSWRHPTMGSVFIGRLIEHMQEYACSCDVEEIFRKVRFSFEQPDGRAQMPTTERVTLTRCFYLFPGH
Caspase-8, sequence (Q14790 217-374): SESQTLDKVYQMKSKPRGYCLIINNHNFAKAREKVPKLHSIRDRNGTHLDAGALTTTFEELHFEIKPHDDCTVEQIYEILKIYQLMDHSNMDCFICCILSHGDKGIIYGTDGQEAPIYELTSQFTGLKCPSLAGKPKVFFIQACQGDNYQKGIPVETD
Caspase-8, sequence (Q14790 385-479): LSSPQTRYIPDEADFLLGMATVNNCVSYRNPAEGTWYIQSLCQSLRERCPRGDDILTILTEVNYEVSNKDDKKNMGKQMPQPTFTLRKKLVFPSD
Caspase-9, sequence (P55211 1-315): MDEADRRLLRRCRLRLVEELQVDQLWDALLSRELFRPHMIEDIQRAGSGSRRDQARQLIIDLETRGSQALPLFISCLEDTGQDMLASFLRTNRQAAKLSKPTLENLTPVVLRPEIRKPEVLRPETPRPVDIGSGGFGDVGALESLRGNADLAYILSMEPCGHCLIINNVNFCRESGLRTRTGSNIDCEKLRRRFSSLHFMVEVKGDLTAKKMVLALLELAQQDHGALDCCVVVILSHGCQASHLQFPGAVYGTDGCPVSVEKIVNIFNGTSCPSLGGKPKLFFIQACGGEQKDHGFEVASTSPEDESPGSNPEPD
Caspase-9, sequence (P55211 331-416): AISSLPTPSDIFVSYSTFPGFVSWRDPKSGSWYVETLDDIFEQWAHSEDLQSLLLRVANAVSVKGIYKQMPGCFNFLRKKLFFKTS
Caspase-3, sequence (P42574 29-175): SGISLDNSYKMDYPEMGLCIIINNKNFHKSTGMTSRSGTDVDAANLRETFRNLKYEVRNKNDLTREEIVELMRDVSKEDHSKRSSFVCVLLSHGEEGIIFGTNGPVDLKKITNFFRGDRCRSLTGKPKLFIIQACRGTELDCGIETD
Caspase-3, sequence (P42574 176-277): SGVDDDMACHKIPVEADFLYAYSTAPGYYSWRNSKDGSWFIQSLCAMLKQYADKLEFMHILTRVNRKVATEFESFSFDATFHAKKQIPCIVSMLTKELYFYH

In the case of `O=C(O)C[C@H](NC(=O)CN1CCN(Cc2ccccc2)C(=O)C1)C(=O)COc1c(F)c(F)cc(F)c1F` [Example 1, (S)-3-(2-(4-Benzyl-3-oxopiperazin-1-yl)acetamido)-4-oxo-5-(2,3,5,6-tetrafluorophenoxy)pentanoic acid], the IC50 turned out to be 0.009 µM against Caspase-1, 0.132 µM at Caspase-8, 0.122 µM against Caspase-9 and 0.132 µM at Caspase-3.

In the case of `O=C(O)C[C@H](NC(=O)CN1CCN(Cc2ccccc2)CC1=O)C(=O)COc1c(F)c(F)cc(F)c1F` [Example 2, (S)-3-(2-(4-Benzyl-2-oxopiperazin-1-yl)acetamido)-4-oxo-5-(2,3,5,6-tetrafluorophenoxy)pentanoic acid], the IC50 came out at 0.004 µM on Caspase-1, 0.028 µM against Caspase-8, 0.038 µM against Caspase-9 and 0.032 µM at Caspase-3.

Turning to `O=C(O)C[C@H](NC(=O)CN1CCN(Cc2ccccc2)C(=O)C1)C(=O)COc1ccnc(C(F)(F)F)n1` [Example 3, (S)-3-(2-(4-Benzyl-3-oxopiperazin-1-yl)acetamido)-4-oxo-5-((2-(trifluoromethyl)pyrimidin-4-yl)oxy)pentanoic acid], the half-inhibitory concentration (IC50) on Caspase-1 turned out to be 0.065 µM; against Caspase-8, 0.396 µM; on Caspase-9, 1 µM; on Caspase-3, 1 µM.

As to `O=C(O)C[C@H](NC(=O)CN1CCN(S(=O)(=O)c2ccccc2)CC1)C(=O)COc1c(F)c(F)cc(F)c1F` [Example 4, (S)-4-oxo-3-(2-(4-(phenylsulfonyl)piperazin-1-yl)acetamido)-5-(2,3,5,6-tetrafluorophenoxy)pentanoic acid], the IC50 at Caspase-1 is 0.002 µM; on Caspase-8, 0.001 µM; on Caspase-9, 0.107 µM; against Caspase-3, 0.2 µM.
